Data set [1] relates to MRSA (Mu3). In words: microbe, parasite or virus in culture. On the procedure:
(§1) For 15 d in MHB, MICs were determined daily for each pseudopeptide and their antibiotic controls. This was done using cells from the well in which the compound concentration was one-half of the MIC (1/2MIC). For each compound, the 1/2MIC well from the previous day’s MIC assay plate was re-suspended and the bacteria grown to a density of about 10^8 cells ml−1. The suspension was diluted in MHB or CAMHB (10^6 cells/ml) and then used to determine the MIC of the same compound determined by micro broth dilution. All MIC measurements were performed in duplicate. Aliquots of the 5 × 10^4 cell/ml dilutions for each 1/2MIC well were periodically plated on MHB and incubated at 35°C for 18 h to verify cell density by colony counts and for visual inspection of colony phenotypes. To control compound stability, peptide solution MICs were determined during and at the end of the 15 d and were compared to cells unexposed to antibiotics. In vivo resistance was also assessed in treated mice (1.5 mg.kg^−1) for 4 d (sepsis) or 6 d (skin abscesses). […] The broth microdilution method was performed as per EUCAST recommendations on 5 independent colonies per mouse (3 mice per set, 15 colonies per drug tested). For severe sepsis and subcutaneous abscesses, in vivo resistance was determined by plating aliquots of crude kidney extracts or abscesses on plates containing 1-, 2-, 4-, or 8-fold the peptide MICs 7 or 3 d post infections, respectively.

Data set [2] deals with MSSA (Newman). In words: microbe, parasite or virus in culture. The settings on record: Staphylococcus aureus. The procedure:
as §1

Data set [3] has as its system S. aureus Newman. In words: microbe, parasite or virus in culture. The procedure:
(§2) (10−4 M final concentrations). At selected time intervals, 100 μl of reaction mixture was collected, quenched by 200 μl 95% EtOH, and adjusted at pH 2 to prevent peptide adsorption to serum proteins. […] Supernatants were analyzed by RP-HPLC on an Xbridge C18 column with a linear gradient of water, 0.08% TFA, and acetonitrile with 1% TFA. HPLC peak areas were used to calculate the percentages of intact compound remaining at the various time points. MIC and MBC values were determined in triplicate in many ESKAPE clinical isolates, including a dozen MDR S. aureus, by the broth microdilution method. Peptidomimetics and antibiotics were assayed in a concentration range of 1 to 128 μM. The bacterial inoculum (5 × 10^5 colony-forming units [CFUs]/well) was prepared in MHB or CAMHB (150 μl). A Biotek Synergy 2 spectrophotometer was used to record the results after 18–20 h incubation at 35°C (±2°C). […] After every hour of culture for 4 h, serial dilutions were plated on BHI plates and incubated overnight at 37°C, and then the CFUs were counted and expressed as log CFU/ml. Phosphate-buffered saline (PBS)-exposed S. aureus MRSA was included as a control.

Data set [4] relates to S. aureus Mu3 (MRSA). The experiment in a line: microbe, parasite or virus in culture. The procedure: as §2
Data set [5] concerns S. aureus N315 (MRSA). The experiment in a line: microbe, parasite or virus in culture. As to conditions: Staphylococcus aureus, MRSA. The procedure:
as §2

In data set [6] the test system is MRSA (Mu3). The experiment in a line: microbe, parasite or virus in culture. The settings on record: Staphylococcus aureus, MRSA. The procedure:
as §1

For data set [7], the system named is MRSA. The experiment in a line: Severe sepsis mouse model, survival. It is filed as in vivo. As to conditions: mice, approximately 2 × 10^9 CFUs MRSA IV; 4 IV doses of 0.5 mg.kg^−1 at 2, 24, 48, 72 h. The text has this: Tolerance and toxicity studies were done on male Swiss mice (CD-1 Crl: CD-1 [ICR] IGS; Charles River). These were 7 to 10 weeks old and weighed an average of 37.2 g. All experimental protocols were approved by the Adaptive Therapeutics Animal Care and Use Committee (APAFiS #4508-2016031l15541258 v2). For the sepsis model, we used female Swiss mice (Janvier Labs), 6 to 8 weeks old and weighing approximately 30 g. Experiments were monitored in the ARCHE-BIOSIT animal lab in Rennes, in biological duplicate. We used Groups of 5 mice for the mild and the severe sepsis models with MRSA. Mice were IV inoculated with 150 μl of MRSA suspensions in 0.9% NaCl containing approximately 5 × 10^8 CFUs for the “mild” sepsis and approximately 2 × 10^9 CFUs for the “severe” sepsis, respectively. […] Mice survival was monitored for 4 d (“severe” sepsis) or 14 d (“mild” sepsis), and the statistical significance of difference(s) between the groups was evaluated using the Wilcoxon test. P < 0.05 was considered significant. Two weeks (“mild” sepsis) or 4 d (“severe” sepsis) after inoculation, mice were euthanized with CO2.

Data set [8] is described as follows: Stability in mouse serum (half-life). It is filed as in vitro ADME. The settings on record: 25% mouse serum, pre-incubated 15 min at 37°C, peptide 10^−4 M, RP-HPLC peak areas, mean of biological triplicates. On the procedure:
as §2
(§3) Supplementary file pbio.3000337.s013.docx: S7 Table Peptide half-lives in human and mouse sera. […] Peptide amounts and half-lives were determined by HPLC. Experiments were conducted on 25% human or mouse sera. Values are shown in minutes. The mean values correspond to biological triplicates. HPLC, high pressure liquid chromatography. (DOCX) Click here for additional data file.

The subject of data set [9] is E. faecium Aus0004. The settings on record: Aus0004. The procedure: as §2
The nature of data set [10]: Stability in human serum (half-life). It is filed as in vitro ADME. The settings on record: 25% human serum, pre-incubated 15 min at 37°C, peptide 10^−4 M, RP-HPLC peak areas, mean of biological triplicates. The procedure: as §2, §3
Data set [11] relates to P. aeruginosa LESB58. As to conditions: P. aeruginosa strain LESB58; biological triplicates. On the procedure:
as §2, with “μM.” for “μM. The bacterial inoculum (5 × 10^5 colony-forming units [CFUs]/well) was prepared in MHB or CAMHB (150 μl). A Biotek Synergy 2 spectrophotometer was used to record the results after 18–20 h incubation at 35°C (±2°C).”, “Phosphate-buffered saline (PBS)-exposed S. aureus MRSA was included as a control.” left out
For 15 d in MHB, MICs were determined daily for each pseudopeptide and their antibiotic controls. […] The suspension was diluted in MHB or CAMHB (10^6 cells/ml) and then used to determine the MIC of the same compound determined by micro broth dilution. […] To control compound stability, peptide solution MICs were determined during and at the end of the 15 d and were compared to cells unexposed to antibiotics. In vivo resistance was also assessed in treated mice (1.5 mg.kg^−1) for 4 d (sepsis) or 6 d (skin abscesses). […]

Data set [12] deals with P. aeruginosa LESB58. In words: Cutaneous abscess mouse model (CFU). It is filed as in vivo, mice. As to conditions: mice, P. aeruginosa LESB58; 9 mg.kg^−1 subcutaneous multiple doses; day 3. The procedure: For the cutaneous abscess model, the mice were randomly divided into 5 sets. The mice were anesthetized with isoflurane, their dorsal fur shaved, and their skin disinfected with 70% ethanol. An overnight culture of S. aureus MRSA or P. aeruginosa LESB58 was washed with 0.9% NaCl, and then a subcutaneous injection of 2 × 10^9 CFUs and an equal amount of sterile Cytodex microcarrier beads (20 mg.ml^−1, Sigma) for S. aureus MRSA, or 10^8 CFUs for P. aeruginosa were injected into the shaved area. […] Mice were monitored every day and then euthanized with CO2 on Day 6 or on Day 3. Abscesses were excised, measured, and homogenized in PBS using an Ultra-Turax. Serial dilutions of the samples were plated on BHI (MRSA) or 2YT medium (LESB58) plates and then incubated overnight at 37°C. Afterward, the CFUs were counted and expressed as log CFU/ml. Dermonecrosis areas were calculated according to the formula π × L × W. ATP levels were determined with an ATP assay kit (Promega) according to manufacturer instructions on sets of 5 colonies harboring the SCV phenotype, and sets of 5 colonies harboring a normal phenotype, after growth on BHI plates.

The test system of data set [13] is Escherichia coli ML35P. The settings on record: E. coli ML35P. The procedure:
as §2

Data set [14] has as its system Escherichia coli K12. As to conditions: E. coli K12. On the procedure:
as §2

Data set [15] concerns P. aeruginosa PA14. As to conditions: P. aeruginosa PA14. The procedure: as §2
Data set [16] relates to Escherichia coli 13090. The procedure:
as §2

Data set [17] relates to P. aeruginosa 15643. On the procedure:
as §2

Data set [18] relates to S. aureus COB. In words: microbe, parasite or virus in culture. The settings on record: Staphylococcus aureus. On the procedure: as §2
(§4) Supplementary file pbio.3000337.s007.docx: S1 Table Antibacterial activity of the 4 peptidomimetics focusing on 9 S. aureus MDR clinical isolates. Clinical isolates BCB/POE and 740404 DUN are from human sepsis. The other strains are from catheter infections or suppurating wounds. Brilacidin was used as a control. MDR, multidrug resistant. (DOCX) Click here for additional data file.

In data set [19] the test system is S. aureus ROUS. In words: microbe, parasite or virus in culture. The settings on record: Staphylococcus aureus. The procedure: as §2, §4
The subject of data set [20] is S. aureus PM64. The experiment in a line: microbe, parasite or virus in culture. As to conditions: Staphylococcus aureus, PM64. The procedure:
as §2, §4

Data set [21] has as its system S. aureus 66534 E. In words: microbe, parasite or virus in culture. As to conditions: Staphylococcus aureus. On the procedure: as §2, §4
The subject of data set [22] is S. aureus 740404 DUN. In words: microbe, parasite or virus in culture. The settings on record: Staphylococcus aureus. The procedure:
as §2, §4

Data set [23] has as its system S. aureus 702697 HOU. The experiment in a line: microbe, parasite or virus in culture. The settings on record: Staphylococcus aureus. The procedure: as §2, §4
The subject of data set [24] is S. aureus FORT. The experiment in a line: microbe, parasite or virus in culture. The settings on record: Staphylococcus aureus. The procedure:
as §2, §4

The test system of data set [25] is S. aureus 33845. The experiment in a line: microbe, parasite or virus in culture. As to conditions: Staphylococcus aureus. On the procedure: as §2, §4
In data set [26] the test system is S. aureus BCB/POE. In words: microbe, parasite or virus in culture. The settings on record: Staphylococcus aureus. On the procedure:
as §2, §4

[27] abbreviates: broth microdilution, 3 independent experiments.

The values below come from PMC6615598, “Novel antibiotics effective against gram-positive and -negative multi-resistant bacteria with limited resistance” (PLoS Biology, 2019).

Converted amounts (≈) assume the structure as drawn.

As to `CN[C@H](CC(C)C)C(=O)N[C@H]1C(=O)N[C@@H](CC(N)=O)C(=O)N[C@H]2C(=O)N[C@H]3C(=O)N[C@H](C(=O)N[C@H](C(=O)O)c4cc(O)cc(O)c4-c4cc3ccc4O)[C@H](O)c3ccc(c(Cl)c3)Oc3cc2cc(c3O[C@@H]2O[C@H](CO)[C@@H](O)[C@H](O)[C@H]2O[C@H]2C[C@](C)(N)[C@H](O)[C@H](C)O2)Oc2ccc(cc2Cl)[C@H]1O` [Vancomycin, vancomycin], the MIC in data set [1] (MRSA (Mu3), d14 of serial passages at sub-MIC) is 1 (1.4) μM; in data set [1] (Staphylococcus aureus, MRSA), 1 µM (≈ 1.45 µg/mL); in data set [2] (MSSA (Newman), d0 of serial passages), 0.5 µM (≈ 0.725 µg/mL); in data set [2] (MSSA|NEWMAN, d14 of serial passages at sub-MIC) it was 1 µM (≈ 1.45 µg/mL); in data set [3] (Staphylococcus aureus, NEWMAN) it was 0.5 µM; in [4] (Staphylococcus aureus, MRSA), 1 µM. For the same molecule, the MIC stood at 2 µM in data set [5], 1 µM (≈ 1.45 µg/mL) in data set [6] and 1 µM (≈ 1.45 µg/mL) in [6] (24 h). For the same molecule, the “Survival in severe sepsis” value in data set [7] is on record as “much less effective”.

As for `CCCCCCCCCC(=O)N[C@@H](Cc1c[nH]c2ccccc12)C(=O)N[C@H](CC(N)=O)C(=O)N[C@@H](CC(=O)O)C(=O)N[C@@H]1C(=O)NCC(=O)N[C@@H](CCCN)C(=O)N[C@@H](CC(=O)O)C(=O)N[C@H](C)C(=O)N[C@@H](CC(=O)O)C(=O)NCC(=O)N[C@H](CO)C(=O)N[C@@H]([C@H](C)CC(=O)O)C(=O)N[C@@H](CC(=O)c2ccccc2N)C(=O)O[C@@H]1C` [Daptomycin, daptomycin, reference compound], the results for the MIC in [3] (Newman), in data set [4] (Mu3) and in data set [9] were 0.25 (0.5) μM, 0.5 (1) μM and 0.5 (1) μM, respectively. Besides, the half-life in data set [8] was more than 58.3 h; in [10] it was 52.3 ± 6.67 h.

Regarding colistin, the MIC in [11] is 1 µM; in [13] (setting [27]), 0.5 (0.65) μM; in data set [14] (setting [27]), 0.5 (0.65) μM; in data set [15] (setting [27]), 0.5 (0.65) μM; in data set [16] (E. coli 13090, clinical strain, Caen hemoculture, broth microdilution, 3 independent experiments) it was 1 (1.3) μM; in data set [17] (P. aeruginosa 15643, clinical strain, Caen hemoculture, broth microdilution, 3 independent experiments), 0.5 (0.65) μM. Besides, the “Number of bacteria in abscess” value in data set [12] is recorded as “lowered the number of bacteria”. Moreover, the MBC/MIC in data set [13] was 1; in [14], 1; in [15] it was 2; in data set [16] (E. coli 13090), 1; in data set [17] (P. aeruginosa 15643), 2.

Consider `N=C(N)NCCCCC(=O)Nc1cc(C(F)(F)F)cc(NC(=O)c2cc(C(=O)Nc3cc(C(F)(F)F)cc(NC(=O)CCCCNC(=N)N)c3O[C@@H]3CCNC3)ncn2)c1O[C@@H]1CCNC1` [brilacidin, reference compound], for which the MIC in data set [18], in [19], in data set [20], in [21], in data set [22] and in data set [23] was 1 µg/mL in each case. The MIC in data set [24], in [25] and in [26] was 1 µg/mL throughout. Also, the “Survival in severe sepsis” value in data set [7] is listed as “cured the infected animals”.

By half-life is commonly meant the time in which the quantity being followed falls by half.
